Reference: patent publication US20090074672A1, “Tumor Boundary Imaging” (SRI International, priority 2007, published 2009)
Where no end group is shown, it is not given here.

Tested on: fibrin gel
Test: TG substrate viability: cross-linking into fibrin gel
Type: biochemical
Conditions: in the presence of Ca2+
Procedure: TG Substrate Viability Assays. Viability was tested by: (1) cross-linking into fibrin gel, and (2) reacting with fibrinogen in the presence of Guinea pig liver TG. […] In the presence of Ca2+, cross-linked fibrin clots were formed.

peptide: TG substrate peptide NQEQVSP (SEQ ID NO:01) conjugated to FITC or HiLyte Fluor 750 via N-hydroxysuccinimide chemistry (also: FITC or HiLyte Fluor 750 conjugated via NHS chemistry)
cross-linking into fibrin clot (fluorescence intensity): crosslinked into the fibrin clot
